Experimental data: patent publication US6555523B1, “Use of cirsiliol and derivatives to treat infections” (priority 1999, dated 2003)
≈ marks a conversion by molar mass, not a printed value. Where “and” joins values, the source holds several entries; their conditions need not be identical. Equal values may be shown once.

How the values were obtained:
MDBK cells = details: cattle
Method: As a comparison, similar tests were conducted using ribavirin.

[1] = system: Bovine Viral Diarrhea Virus; assay: Plaque formation by Bovine Viral Diarrhea Virus in MDBK cultures; assay type: cell-based, bovine viral diarrhea virus (BVDV); details: for Number of plaques: Tests 1-3, control 68; for % Reduction: plaques
Method: HCV in vitro assays. No well-accepted model exists for HCV and new compounds for use in the treatment of HCV are frequently tested for activity against bovine viral diarrhea virus (BVDV), a virus which is related to HCV.
A representative compound according to the present invention, naringin (i.e., 7-neohesperidoside, 5, 4′ dihydroxyflavanone) was tested for anti-BVDV activity in MDBK cells.

HIV Ba-L = assay: Anti-HIV assay in fresh human monocyte-macrophages (p24 ELISA), Protocol D2; assay type: cell-based; details: Human immunodeficiency virus 1, BAL, Macrophage
Method: Protocol D2—Assay in fresh human monocyte-macrophages. […] The cells are placed in a 96-well microtiter plate at 37° C. for 2 hours. Non-adherent cells are removed by vigorously washing six times. […] The cultures are carefully monitored for confluency during this incubation period. Infection of the cells is performed with monocytotropic HIV-1 isolates. High titer pools of each of these viruses are harvested from infected cultures of peripheral blood adherent cells and frozen in 1.0 ml aliquots at −80° C. Monocytemacrophage monolayers are infected at a multiplicity of infection (“MOI”) of 0.1.
(§3) At 2 days post-infection, the medium is decanted and the cultures washed twice with complete medium in order to remove excess virus. Fresh medium alone or medium containing the appropriate concentration of drug is added and incubation continued for an additional five days. XTT staining for cytotoxicity and HIV p24 ELISA assays for production of p24 core antigen are performed on Day 7 post infection. This is performed according the ELISA kit assay manufacturers recommendations. Control curves are generated in each assay to accurately quantitate the amount of capsid protein in each sample. Data is obtained by spectrophotometric analysis at 450 nm using a Molecular Devices Vmax plate reader. P24 concentrations are calculated form the optical density values by use of the Molecular Device software package Soft Max.
Most of the values were based on average values that were obtained from duplicate or triplicate assay wells.

parainfluenza HA-1 = assay: CPE-inhibition (microscopic) assay, Protocol A2; assay type: cell-based, parainfluenza virus; details: HEp-2, cell Hep2 (cell blank for 3-(4′-bromophenyl) coumarin)
in vitro = details: human
[2] = Drug cytotoxicity by XTT in monocyte-macrophages, Protocol D2; assay type: cell-based; details: human; macrophage; D2; naringin solubilised in 35% EtOH; read-out: TC50
Method: Protocol D2—Assay in fresh human monocyte-macrophages. […] The cells are placed in a 96-well microtiter plate at 37° C. for 2 hours. Non-adherent cells are removed by vigorously washing six times. […] The cultures are carefully monitored for confluency during this incubation period. Infection of the cells is performed with monocytotropic HIV-1 isolates. […] Monocytemacrophage monolayers are infected at a multiplicity of infection (“MOI”) of 0.1.
as §3

T, gondii RH = assay: In-vitro anti Toxoplasma gondii activity in HFF, Protocol C; assay type: cell-based
Method: Protocol C—In-vitro testing of anti Toxoplasma gondii activity of Cirsiliol and Naringin. The compounds were tested in an in vitro cell culture assay utilizing human fibroblasts (HFF line) as the host cell. RH strain Toxoplasma gondii that has been transfected with β-galactosidase as a marker for quantitative detection of parasite number (RH Bgal), was used as the challenge organism. The compounds ere dissolved, and then diluted in cell culture medium at least 100 fold for the assays. Controls containing the maximum concentration of solvent used in the assay were run with each test. The active drugs were added and the monolayers were infected immediately at the beginning of each test. Extracellular T. gondii were removed by rinsing the monolayer, and infected host cells remained in contact with the cells for the entire test period. Each test was terminated when at least four parasite doublings could be visually identified in the control monolayers, and parasite numbers were quantitated by standard colorimetric assay for bet galactosidase activity with optical density at 550 nm as the readout. The optical density in this assay has a direct and linear correlation with parasite numbers over a 5-log parasite concentration. Toxicity in the host cells was determined by inspection for cytopathic effects and visual evaluation of cell growth.

[3] = Human HCV clinical trial, one patient (HCV and HIV infected), naringin 4 g orally three times daily: bloodwork and urine values; assay type: in vivo; details: for Basophils: Day 0: 0; for Basophils / Eosinophils: ref. 0-5%; for Creatinine: Day 0: 0.5, ref. 0.5-1.2; for Eosinophils: Day 0: 1; for WBC: Day 0: 3.2, ref. 4-11 × 10^3; for RBC: Day 0: 4.7, ref. 3.9-5.1 × 10^6; for Monocytes: Day 0: 5, ref. 0-10%; for Hemoglobin: Day 0: 14, ref. 13.0-17.0; for Lymphocytes: Day 0: 29, ref. 15-50%; for MCH: Day 0: 30; for MCHC: Day 0: 34, ref. 32-36%; for Hematocrit: Day 0: 41.7, ref. 36-46%; for Glucose: Day 0: 76; for SGOT: Day 0: 83; for Platelet Count: Day 0: 96, ref. 150-400 × 10^3; for SGPT: Day 0: 112; for Specific Gravity: ref. 1.005-1.035; for pH: ref. 4.5-7.5; for Acetone, Urine / Bilirubin / Glucose, Urine / Leukocyte esterase / Nitrite / Occult Blood / Protein, Urine: ref. Negative
Method: (§1) Human HCV clinical trial. A human patient suffering from hepatitis C virus was treated according to the following regimen: initial dosing beginning on Day 0 (see Table C), three times daily, the patient ingested 4 g of naringin orally, and then drank hot tea; in later days, the patient ingested, three times daily, 4 g of naringin mixed in hot tea. This patient also suffered from HIV infection.
(§2) The tables below, labeled part 1 through part 4, show data from this patients' bloodwork on Day 0 (when treatment according to this invention was initiated), Day 3 (3 days after Day 0), Day 6 (6 days after Day 0) and Day 9 (9 days after Day 0). In addition, the tables include data from this patients' bloodwork 72 days before Day 0 (“Day −72”).

hepatitis C virus = assay: Human HCV clinical trial, one patient (HCV and HIV infected), naringin 4 g orally three times daily: hepatitis C RNA; assay type: in vivo; details: for Hepatitis C by PCR log 10: Day 0: 6.5; for Hepatitis C RNA ultraquant: Day 0: 2,871,300, ref. <200
Method: as §1, §2

In the case of `C[C@@H]1O[C@@H](O[C@H]2[C@H](Oc3cc(O)c4c(c3)O[C@H](c3ccc(O)cc3)CC4=O)O[C@H](CO)[C@@H](O)[C@@H]2O)[C@H](O)[C@H](O)[C@H]1O` [Naringin, 7-neohesperidoside, 5, 4′ dihydroxyflavanone], the “MTC (minimum cytotoxic drug concentration)” value (MDBK cells) is reported as > 2000 µg/mL, the ID50 ([1]; BVDV plaque formation in MDBK, table footnote, unit from the table's concentration head) is reported as 631.39 µg/mL (≈ 1090 µM) and the Number of plaques ([1]; naringin 31.25 μg/mL) is reported as 65 and 75 and 60. The Number of plaques ([1]; naringin 62.50 μg/mL) was 57 and 65, the Number of plaques ([1]; naringin 125.00 μg/mL) was 52 and 65 and 61 and the Number of plaques ([1]; naringin 250.00 μg/mL) was 50 and 58 and 52. For the same compound, the Number of plaques ([1]; naringin 500.00 μg/mL) was 32 and 45 and 42, the Number of plaques ([1]; naringin 1000.00 μg/mL) was 22 and 25 and 14 and the Number of plaques ([1]; naringin 1500.00 μg/mL) was 8 and 11. The Number of plaques ([1]; naringin 2000.00 μg/mL) was 4 and 3, the “% Reduction” value ([1]; naringin 31.25 μg/mL) was 2.39% and the “% Reduction” value ([1]; naringin 62.50 μg/mL) was 12.64%. For the same compound, the “% Reduction” value ([1]; naringin 125.00 μg/mL) was 13.12%, the “% Reduction” value ([1]; naringin 250.00 μg/mL) was 21.91% and the “% Reduction” value ([1]; naringin 500.00 μg/mL) was 41.92%. For the same compound, the “% Reduction” value ([1]; naringin 1000.00 μg/mL) was 70.22%, the “% Reduction” value ([1]; naringin 1500.00 μg/mL) was 86.82% and the “% Reduction” value ([1]; naringin 2000.00 μg/mL) was 95.11%. The IC50 (HIV Ba-L; D2, naringin solubilised in 35% EtOH) was 86.2 µM, the IC50 (HIV Ba-L; D2, naringin solubilised in 95% EtOH) was > 100 µM and the IC50 (parainfluenza HA-1) was 25 µM. The CC50 (in vitro) was 100 µM, the CC50 at 7 days [2] was > 100 µM and the IC50 (T, gondii RH) was > 100 µM. For the same compound, the Appearance ([3]; Day 3) was “Clear”, the Color ([3]; Day 3) was “Yellow” and the Basophils ([3]; Day 3) was 1%. For the same compound, the Creatinine ([3]; Day 3) was 0.5 mg/dL, the Eosinophils ([3]; Day 3) was 0% and the WBC ([3]; Day 3) was 3.3 × 10^3 /mm^3. The RBC ([3]; Day 3) was 4.71 × 10^6 /mm^3, the Monocytes ([3]; Day 3) was 10% and the Hemoglobin ([3]; Day 3) was 13.9 g/dL. It also gave a Lymphocytes ([3]; Day 3) of 25%, an MCH ([3]; Day 3) of 30 picograms and an MCHC ([3]; Day 3) of 34%. It also gave a Hematocrit ([3]; Day 3) of 40.5%, a Glucose ([3]; Day 3) of 98 mg/dL and an SGOT ([3]; Day 3) of 62 u/L. The “Platelet Count” value ([3]; Day 3) was 104 × 10^3 /mm^3, the SGPT ([3]; Day 3) was 102 u/L and the “Specific Gravity” value ([3]; Day 3) was 1.024. For the same compound, the pH ([3]; Day 3) was 5, the “Acetone, Urine” value ([3]; Day 3) was “Negative” and the Bilirubin ([3]; Day 3) was “Negative”. For the same compound, the “Glucose, Urine” value ([3]; Day 3) was “Negative”, the Leukocyte esterase ([3]; Day 3) was “Negative” and the Nitrite ([3]; Day 3) was “Negative”. For the same compound, the “Occult Blood” value ([3]; Day 3) was “Negative”, the “Protein, Urine” value ([3]; Day 3) was “Negative” and the Appearance ([3]; Day 6) was “Clear”. It also gave a Basophils ([3]; Day 6) of 1%, a Creatinine ([3]; Day 6) of 0.5 mg/dL and an Eosinophils ([3]; Day 6) of 1%. The WBC ([3]; Day 6) was 3.4 × 10^3 /mm^3, the RBC ([3]; Day 6) was 4.6 × 10^6 /mm^3 and the Monocytes ([3]; Day 6) was 6%. For the same compound, the Hemoglobin ([3]; Day 6) was 13.7 g/dL, the Lymphocytes ([3]; Day 6) was 28% and the MCH ([3]; Day 6) was 30 picograms. For the same compound, the MCHC ([3]; Day 6) was 34%, the Hematocrit ([3]; Day 6) was 40.1% and the Glucose ([3]; Day 6) was 93 mg/dL. The SGOT ([3]; Day 6) was 38 u/L, the “Platelet Count” value ([3]; Day 6) was 112 × 10^3 /mm^3 and the SGPT ([3]; Day 6) was 62 u/L. For the same compound, the “Specific Gravity” value ([3]; Day 6) was 1.017, the pH ([3]; Day 6) was 6 and the “Acetone, Urine” value ([3]; Day 6) was “Negative”. The Bilirubin ([3]; Day 6) was “Negative”, the “Glucose, Urine” value ([3]; Day 6) was “Negative” and the Leukocyte esterase ([3]; Day 6) was “Negative”. The Nitrite ([3]; Day 6) was “Negative”, the “Occult Blood” value ([3]; Day 6) was “Negative” and the “Protein, Urine” value ([3]; Day 6) was “Negative”. For the same compound, the “patient's SGOT values” ([3]; summary in words) was “drastic reduction”, the “patient's SGPT values” ([3]; summary in words) was “drastic reduction” and the “Hepatitis C by PCR log 10” value (hepatitis C virus; Day 3) was 6.2. For the same compound, the “Hepatitis C RNA ultraquant” value (hepatitis C virus; Day 3) was 1,500,900 copies/mL, the “Hepatitis C by PCR log 10” value (hepatitis C virus; Day 6) was 5.5 and the “Hepatitis C RNA ultraquant” value (hepatitis C virus; Day 6) was 340,540 copies/mL. For the same compound, the “Hepatitis C by PCR log 10” value (hepatitis C virus; Day 9) was 4.9, the “Hepatitis C RNA ultraquant” value (hepatitis C virus; Day 9) was 78,592 copies/mL and the “patient's hepatitis C PCR values” (hepatitis C virus; summary in words, Day 0 to Day 9) was “drastic reduction”.
